Results as given in patent US12544375B2, “Small molecule therapeutic for parkinson's disease paired with a biomarker of therapeutic activity” (The Board of Trustees of the Leland Stanford Junior …, priority 2019, dated 2026).

Columns and labels:
Mitofusin (Marf) = assay: Flies fed compound, Mitofusin (Marf) Western blot; type: in vivo, fruit flies; settings: wild-type flies fed 250 μM for 7 days
Procedure: FIG. 2A-FIG. 2F. Miro1 Reducer Eliminates the Miro1 Defect in PD Fibroblasts. (FIG. 2A) Chemical properties of Miro1 Reducer. (FIG. 2B) Wild-type flies (w^1118) were fed with DMSO alone (0 μM Miro1 Reducer) or Miro1 Reducer in DMSO at 250 μM for 7 days, and lysed and blotted as indicated. The band intensities are normalized to those of Tubulin from the same blots. n=4. (FIG. 2C-FIG. 2E) Fibroblasts were treated, lysed, and blotted as indicated. (FIG. 2C) Band intensities are normalized to those of GAPDH from the same blots and compared to “Healthy-1, no treatment” except otherwise indicated. n=4. (FIG. 2D) Band intensities are normalized to those of ATP5β from the same blots and expressed as a percentage of the mean of “0 μM Miro1 Reducer with CCCP”. Mean±S.E.M is shown. n=3. (FIG. 2E) Band intensities are normalized to those of GAPDH from the same blots and compared to “Healthy-1, no CCCP, no MG132” except otherwise indicated. n=4. […] The Miro1 intensity is normalized to that of mito-dsRed from the same cell and quantified across 37-62 cells from 5 fields each transfection, 3 independent transfections. […]
We assessed the binding ability of 6,835,320 commercialized small molecules to one of the two atypical Rho GTPase domains of Miro1 (amino acids 411-592) (FIG. 6C) by a customized virtual screen using the artificial intelligence (AI) technology. […]

iPSC-derived neurons = assay: Mitochondrial motility and clearance in axons of iPSC-derived neurons, live imaging; type: cell-based, human; settings: 5 μM for 24 hrs
Procedure: FIG. 3A-FIG. 3D. Miro1 Reducer Rescues Parkinson's Neurodegeneration. (FIG. 3A) Fibroblasts were treated, lysed, and blotted as indicated. Band intensities are normalized to those of ATP5β from the same blots and compared to “Healthy-2, no treatment”. n=4. (FIG. 3B-FIG. 3C) iPSC-derived neurons were treated as indicated and immunostained with anti-TH (FIG. 3B) or stained with PI and Dapi (FIG. 3C). Both Antimycin A and Miro1 Reducer were dissolved in ethanol. Neurons were pretreated with Miro1 Reducer 24 hrs before the application of Antimycin A for another 6 hrs. The same volume of ethanol was applied at the same time in negative controls. (FIG. 3B) The density of TH-positive neurons is calculated in each condition under 20×, from 10 fields each experiment, 3-4 experiments. […] (FIG. 3C) The percentage of PI-positive cells out of total cells (Dapi-positive) is calculated. n=20 fields each experiment, 4 experiments. […] Graphs of Mean±S.E.M show the percent of time each mitochondrion is in motion (red and blue, compared to “Wild-type-I, before treatment”), and the mitochondrial intensity normalized to that of the same axonal region at “0 min” and expressed as a fraction of the mean of “Wild-type-I, 0 min”. n=33-77 mitochondria from 5-8 axons from 5-8 separate transfections. […]
Live Image Acquisition and Quantification. […]

Q: `O=C(Nc1ccc(Nc2cc(-n3ccnc3)ncn2)cc1)Nc1cccc(F)c1` [Miro1 Reducer] was tested. Which “effect on OMM GTPase Mitofusin (Marf)” value (Mitofusin (Marf)) did it give?
A: did not significantly affect

Q: And the “basal motility of polarized, healthy mitochondria” value (iPSC-derived neurons)?
A: did not affect

Q: And the “delayed arrest and clearance of depolarized mitochondria” value (iPSC-derived neurons; then 100 μM Antimycin A, PD patient neurons)?
A: rescued the delayed arrest and clearance of depolarized mitochondria
